In patent US20240279227A1, “FUSED HETEROCYCLIC DERIVATIVES” (Janssen Sciences Ireland Unlimited Company, priority 2021, published 2024):

Assays:
[1] = tested on: HBV; test: Anti-HBV activity in HepG2.117 cell line (intracellular HBV DNA, real-time PCR); assay type: cell-based, hepatitis B virus; conditions: HepG2.117 cells, HBV replication induced, 3 days of treatment, intracellular HBV DNA by real-time PCR
Procedure: The anti HBV activity was measured using the HepG2.117 cell line, a stable, inducibly HBV producing cell line, which replicates HBV in the absence of doxycycline (Tet-off system). The HepG2 cell line is available from ATCCR under number HB-8065. Transfection of the HepG2 cell line can be as described in Sun and Nassal 2006 Journal of Hepatology 45 (2006) 636-645 “Stable HepG2-and Huh7-based human hepatoma cell lines for efficient regulated expression of infectious hepatitis B virus”.
For the antiviral assay, HBV replication was induced, followed by a treatment with serially diluted compound in 96-well plates. After 3 days of treatment, the antiviral activity was determined by quantification of intracellular HBV DNA using real-time PCR and an HBV specific primer set and probe.

[2] = Human liver microsome stability; assay type: in vitro ADME; conditions: 1 μM compound, NADPH 1 mM, pH 7.4, 37° C., 0-60 min; for half-life at 1 μM: human, pooled human liver microsomes, pH 7.4, pooled human liver microsomes 0.5 mg/mL, read-out: HLM Metabolism t1/2
Procedure: Pooled human liver microsomes (0.5 mg/mL) was pre-incubated with 1 μM test compounds or control compounds (verapamil, warfarin and cerivastatin) in 0.1 M phosphate buffer pH 7.4 containing 1 mM MgCl2 at 37° C. The final concentration of DMSO and acetonitrile are 0.05% and 0.2%, respectively. All incubations are performed singularly for each compound. NADPH was added to initiate the reaction with the final concentration of 1 mM and the final incubation volume of 400 μL.
At 6 time points (0, 5, 10, 20, 40 and 60 min) reactions were stopped by the removal of 50 μL of the incubation mixture into plates containing acetonitrile at a of 1:3 (v:v). The plates were centrifuged at 3000 rpm for 10 min at 4° C. to precipitate the protein. Following protein precipitation, the sample supernatants were combined in cassettes of up to 8 compounds. The internal standard was added (1:1 supernatant to internal standard solution) and samples were analyzed using standard LC-MS conditions.
From a plot of ln peak area ratio (compound peak area/internal standard peak area) against time, the gradient of the line is determined. Subsequently, half-life is calculated using the equations below: […]

[3] = Cytotoxicity, ATPlite Luminescence Assay; assay type: cell-based, human; conditions: human, HepG2 or HepG2.117 cells, 3-days incubation unless marked with *, ATPlite viability
Procedure: Cytotoxicity of the compounds was tested using HepG2 or HepG2.117 cells, incubated for 3 or 4 days in the presence of compounds. The viability of the cells was assessed using the PERKIN ELMER ATPlite Luminescence Assay System.”

[4] = Hepatitis B virus, HepG2.117, 72 h

C[C@@H]1Cc2nn3c(c2CN1C(=O)c1ccc(Cl)c(C#N)c1)C(=O)N([C@H](C)c1ccc(OC(F)F)cc1)C[C@H]3C(=O)N(C)C [Compound 27A, (3R,7S)-2-(4-Chloro-3-cyanobenzoyl)-9-((R)-1-(4-(difluoromethoxy)phenyl)ethyl)-N,N,3-trimethyl-10-oxo-1,2,3,4,7,8,9,10-octahydropyrido[4′,3′:3,4]pyrazolo[1,5-a]pyrazine-7-carboxamide]
EC50 [1, 4]: 0.031 µM | half-life at 1 μM [2]: > 3 h | CC50 [3]: > 50 µM

CNC(=O)[C@@H]1CN(C(C)c2ccc(C#N)cc2)C(=O)c2c3c(nn21)C[C@@H](C)N(C(=O)c1ccc(Cl)c(Cl)c1)C3 (single isomer, unassigned) [Compound 23A, (3R,7S)-9-((R*)-1-(4-Cyanophenyl)ethyl)-2-(3,4-dichlorobenzoyl)-N,3-dimethyl-10-oxo-1,2,3,4,7,8,9,10-octahydropyrido[4′,3′:3,4]pyrazolo[1,5-a]pyrazine-7-carboxamide]
EC50 [1]: 0.06 µM | half-life at 1 μM [2]: > 3 h | CC50 [3]: > 50 µM

CNC(=O)[C@@H]1CN(C(C)c2ccc(C(C)(C)O)cc2)C(=O)c2c3c(nn21)C[C@@H](C)N(C(=O)c1ccc(Cl)c(Cl)c1)C3 (single isomer, unassigned) [Compound 5B, (3R,7S)-2-(3,4-Dichlorobenzoyl)-9-((S*)-1-(4-(2-hydroxypropan-2-yl)phenyl)ethyl)-N,3-dimethyl-10-oxo-1,2,3,4,7,8,9,10-octahydropyrido[4′,3′:3,4]pyrazolo[1,5-a]pyrazine-7-carboxamide]
EC50 [1, 4]: 0.019 µM | half-life at 1 μM [2]: 1.44 h | CC50 [3]: > 50 µM

CNC(=O)[C@@H]1CN(C(C)c2ccc(S(C)(=O)=O)cc2)C(=O)c2c3c(nn21)C[C@@H](C)N(C(=O)c1ccc(Cl)c(C(F)(F)F)c1)C3 (single isomer, unassigned) [Compound 19A, (3R,7S)-2-(4-Chloro-3-(trifluoromethyl)benzoyl)-N,3-dimethyl-9-((R*)-1-(4-(methylsulfonyl)phenyl)ethyl)-10-oxo-1,2,3,4,7,8,9,10-octahydropyrido[4′,3′:3,4]pyrazolo[1,5-a]pyrazine-7-carboxamide]
EC50 [1]: 0.12 µM | half-life at 1 μM [2]: > 3 h | CC50 [3]: > 50 µM

CNC(=O)[C@@H]1CN(C(C)c2ccnc(C(F)(F)F)c2)C(=O)c2c3c(nn21)C[C@@H](C)N(C(=O)c1ccc(Cl)c(Cl)c1)C3 (single isomer, unassigned) [Compound 9B, (3R,7S)-2-(3,4-Dichlorobenzoyl)-N,3-dimethyl-10-oxo-9-((S*)-1-(2-(trifluoromethyl)pyridin-4-yl)ethyl)-1,2,3,4,7,8,9,10-octahydropyrido[4′,3′:3,4]pyrazolo[1,5-a]pyrazine-7-carboxamide]
EC50 [1, 4]: 0.061 µM | half-life at 1 μM [2]: > 3 h | CC50 [3]: > 50 µM

CNC(=O)[C@@H]1CN(C(C)c2ccc(N3CCCC3=O)nc2)C(=O)c2c3c(nn21)C[C@@H](C)N(C(=O)c1ccc(Cl)c(Cl)c1)C3 (single isomer, unassigned) [Compound 34A, (3R,7S)-2-(3,4-Dichlorobenzoyl)-N,3-dimethyl-10-oxo-9-((R*)-1-(6-(2-oxopyrrolidin-1-yl)pyridin-3-yl)ethyl)-1,2,3,4,7,8,9,10-octahydropyrido[4′,3′:3,4]pyrazolo[1,5-a]pyrazine-7-carboxamide]
EC50 [1, 4]: 0.38 µM | half-life at 1 μM [2]: 1.83 h | CC50 [3]: > 50 µM

CNC(=O)[C@@H]1CN([C@H](C)c2ccc(C(F)(F)F)nc2)C(=O)c2c3c(nn21)C[C@@H](C)N(C(=O)c1ccc(Cl)c(C(F)(F)F)c1)C3 [Compound 15A, (3R,7S)-2-(4-Chloro-3-(trifluoromethyl)benzoyl)-N,3-dimethyl-10-oxo-9-((R)-1-(6-(trifluoromethyl)pyridin-3-yl)ethyl)-1,2,3,4,7,8,9,10-octahydropyrido[4′,3′:3,4]pyrazolo[1,5-a]pyrazine-7-carboxamide]
EC50 [1, 4]: 0.086 µM | half-life at 1 μM [2]: > 3 h | CC50 [3]: > 50 µM

CNC(=O)[C@@H]1CN(C(C)c2ccc(C(F)F)nc2)C(=O)c2c3c(nn21)C[C@@H](C)N(C(=O)c1ccc(Cl)c(Cl)c1)C3 (single isomer, unassigned) [Compound 36A, (3R,7S)-2-(3,4-Dichlorobenzoyl)-9-((R*)-1-(6-(difluoromethyl)pyridin-3-yl)ethyl)-N,3-dimethyl-10-oxo-1,2,3,4,7,8,9,10-octahydropyrido[4′,3′:3,4]pyrazolo[1,5-a]pyrazine-7-carboxamide]
EC50 [1, 4]: 0.086 µM | half-life at 1 μM [2]: > 3 h | CC50 [3]: > 50 µM

CNC(=O)[C@@H]1CN([C@@H](C)c2ccc(OC(F)F)cc2)C(=O)c2c3c(nn21)C[C@@H](C)N(C(=O)c1ccc(Cl)c(C(F)(F)F)n1)C3 [Compound 45, (3R,7S)-2-(5-Chloro-6-(trifluoromethyl)picolinoyl)-9-((S)-1-(4-(difluoromethoxy)phenyl)ethyl)-N,3-dimethyl-10-oxo-1,2,3,4,7,8,9,10-octahydropyrido[4′,3′:3,4]pyrazolo[1,5-a]pyrazine-7-carboxamide]
EC50 [1, 4]: 0.067 µM | half-life at 1 μM [2]: > 3 h | CC50 [3]: 49.8 µM

CNC(=O)[C@@H]1CN(C(C)c2cccc(Cl)n2)C(=O)c2c3c(nn21)C[C@@H](C)N(C(=O)c1ccc(Cl)c(Cl)c1)C3 (single isomer, unassigned) [Compound 38A, (3R,7S)-9-((R*)-1-(6-Chloropyridin-2-yl)ethyl)-2-(3,4-dichlorobenzoyl)-N,3-dimethyl-10-oxo-1,2,3,4,7,8,9,10-octahydropyrido[4′,3′:3,4]pyrazolo[1,5-a]pyrazine-7-carboxamide]
EC50 [1, 4]: 0.068 µM | half-life at 1 μM [2]: > 3 h | CC50 [3]: > 50 µM

CNC(=O)[C@@H]1CN(C(C)c2ccc(NCC(F)(F)F)nc2)C(=O)c2c3c(nn21)C[C@@H](C)N(C(=O)c1ccc(Cl)c(Cl)c1)C3 (single isomer, unassigned) [Compound 33A, (3R,7S)-2-(3,4-Dichlorobenzoyl)-N,3-dimethyl-10-oxo-9-((R*)-1-(6-((2,2,2-trifluoroethyl)amino)pyridin-3-yl)ethyl)-1,2,3,4,7,8,9,10-octahydropyrido[4′,3′:3,4]pyrazolo[1,5-a]pyrazine-7-carboxamide]
EC50 [1, 4]: 0.062 µM | HLM Metabolism t1/2 ([2]; pooled human liver microsomes 0.5 mg/mL): 0.798 h | CC50 [3]: > 50 µM

CNC(=O)[C@@H]1CN(C(C)c2ccc(OC(F)F)c(F)c2)C(=O)c2c3c(nn21)C[C@@H](C)N(C(=O)c1ccc(Cl)c(Cl)c1)C3 (single isomer, unassigned) [Compound 24A, (3R,7S)-2-(3,4-Dichlorobenzoyl)-9-((R*)-1-(4-(difluoromethoxy)-3-fluorophenyl)ethyl)-N,3-dimethyl-10-oxo-1,2,3,4,7,8,9,10-octahydropyrido[4′,3′:3,4]pyrazolo[1,5-a]pyrazine-7-carboxamide]
EC50 [1]: 0.054 µM | half-life at 1 μM [2]: > 3 h | CC50 [3]: 20.6 µM

CNC(=O)[C@@H]1CN([C@@H](C)c2ccc(C(F)(F)F)nc2)C(=O)c2c3c(nn21)C[C@@H](C)N(C(=O)c1ccc(Cl)c(Cl)c1)C3 [Compound 13B, (3R,7S)-2-(3,4-dichlorobenzoyl)-N,3-dimethyl-10-oxo-9-((S)-1-(6-(trifluoromethyl)pyridin-3-yl)ethyl)-1,2,3,4,7,8,9,10-octahydropyrido[4′,3′:3,4]pyrazolo[1,5-a]pyrazine-7-carboxamide]
EC50 [1, 4]: 0.033 µM | half-life at 1 μM [2]: > 3 h | CC50 [3]: 46.8 µM

CNC(=O)[C@@H]1CN([C@@H](C)c2cnc(C(F)(F)F)cn2)C(=O)c2c3c(nn21)C[C@@H](C)N(C(=O)c1ccc(Cl)c(Cl)c1)C3 [Compound 6B, (3R,7S)-2-(3,4-Dichlorobenzoyl)-N,3-dimethyl-10-oxo-9-((S)-1-(5-(trifluoromethyl)pyrazin-2-yl)ethyl)-1,2,3,4,7,8,9,10-octahydropyrido[4′,3′:3,4]pyrazolo[1,5-a]pyrazine-7-carboxamide]
EC50 [1, 4]: 0.092 µM | half-life at 1 μM [2]: > 3 h | CC50 [3]: > 50 µM

CNC(=O)[C@@H]1CN([C@H](C)c2cnc(C(F)(F)F)nc2)C(=O)c2c3c(nn21)C[C@@H](C)N(C(=O)c1ccc(Cl)c(Cl)c1)C3 [Compound 4A, (3R,7S)-2-(3,4-Dichlorobenzoyl)-N,3-dimethyl-10-oxo-9-((R)-1-(2-(trifluoromethyl)pyrimidin-5-yl)ethyl)-1,2,3,4,7,8,9,10-octahydropyrido[4′,3′:3,4]pyrazolo[1,5-a]pyrazine-7-carboxamide]
EC50 [1, 4]: 2.44 µM | half-life at 1 μM [2]: > 3 h | CC50 [3]: > 50 µM
